In patent US20260103474A1, “NOVEL COMPOUNDS FOR THE DIAGNOSIS OF TDP-43 PROTEINOPATHIES” (AC IMMUNE SA, priority 2022, published 2026):
Read-outs that look alike come from different tables or passages of the source.

Tests used:
[1] = biological target: T1, Human brain derived TDP-43 aggregates (Homo sapiens, UniProt Q13148); assay: Micro-radiobinding competition assay for binding affinity to TDP-43; details: for Ki: 0.24 nM to 2 μM vs tritiated reference ligand at 40 nM; for Human brain derived TDP-43 aggregates Mean % competition at 250 nM: non-radiolabeled compound at 250 nM vs tritiated reference ligand at 40 nM; for Human brain derived TDP-43 aggregates Mean % competition at 250 nM / Human brain derived TDP-43 aggregates Mean % competition at 2 μM: FTD sarkosyl-insoluble brain extracts; for Human brain derived TDP-43 aggregates Mean % competition at 2 μM: non-radiolabeled compound at 2 μM vs tritiated reference ligand at 40 nM
T1 construct: Human FTD sarkosyl-insoluble brain extracts were spotted onto microarray slides
Protocol: Human brain extracts were prepared as described in Laferriere et al., 2019, Nature Neurosc. A sample of brain tissue (frontal or temporal cortex) was homogenized at 1:4 (w/v) ratio in the homogenization-solubilization (HS) buffer at 4° C. using tissue homogenizer (Precellys) with CKmix homogenization tubes. The following sequence was used for homogenization: 3 cycles of 30 seconds at 5000 rpm (with 15 seconds pause between each cycle). Homogenized samples were aliquoted and stored at −80° C. in 1.5 mL low protein binding tubes.
Brain homogenates were thawed on ice and resuspended in HS buffer to obtain a final concentration of 2% sarkosyl, 1 unit/μL Benzonase and 1 mM MgCl2. The samples were then incubated at 37° C. under constant shaking at 600 rpm on a thermomixer for 45 minutes (min). The supernatants were collected in a new tube (sarkosyl-soluble fraction, S1). The pellet was resuspended in 1000 μL of myelin floatation buffer and centrifuged at 20,000 g for 60 min at 4° C. The supernatant was carefully removed to remove all the floating lipids. This step was repeated if all the lipids could not be removed in a single step. The pellet was subsequently washed with Phosphate-Buffered Saline (PBS) and centrifuged for 30 min at 20,000 g at 4° C. The final pellet was resuspended in 200 μL PBS and stored at −80° C. (sarkosyl-insoluble fraction). The samples were analyzed by immunoblotting in denaturing conditions.
Human FTD sarkosyl-insoluble brain extracts were spotted onto microarray slides. The slides were incubated with a tritiated reference ligand at 40 nM, and the example compounds (non-radiolabeled) at 2 μM and 250 nM. […] After incubation, slides were washed and scanned by a real-time autoradiography system (BeaQuant, ai4R). Quantification of the signal was performed by using the Beamage image analysis software (ai4R). Non-specific signal was determined with an excess of non-radiolabeled reference compound (2 μM) and specific binding was calculated by subtracting the non-specific signal from the total signal. Competition was calculated as percent, where 0% was defined as the specific binding in the presence of vehicle and 100% as the values obtained in the presence of excess of the non-radiolabeled reference compound. Ki values were calculated in GraphPad Prism8 by applying a nonlinear regression curve fit using a one site, specific binding model. Measurements were performed with at least two technical replicates in the two-concentration competition experiment and with one technical replicate in the experiments including a range of concentrations. For compounds tested in more than one experiment, the mean of the replicates or Ki values in independent experiments is reported.

[2] = biological target: T2, Abeta (Homo sapiens, UniProt P05067); assay: Radiobinding competition assay using Abeta reference compound on AD insoluble fraction of brain homogenates; format: binding; details: against [3H]Abeta reference compound
T2 construct: an AD donor with confirmed burden of Tau and Abeta aggregates; from tissue; host or cells: frontal cortex of a human AD donor, Triton/sucrose-insoluble fraction
Protocol: Approximately 4 g of frozen tissue block from frontal cortex brain region was used from an AD donor with confirmed burden of Tau and Abeta aggregates. The tissue was homogenized in three volumes (1:3 w/v) of high salt buffer (50 mM Tris-HCl pH 7.5, 750 mM NaCl, 5 mM EDTA) supplemented with protease inhibitors (Complete; Roche 11697498001) at 4° C. with a glass Dounce homogenizer. The homogenate was transferred into polycarbonate centrifuge bottles (16×76 mm; Beckman 355603) and centrifuged at 100,000×g (38,000 RPM) in an ultracentrifuge (Beckman, XL100K) for 60 minutes at 4° C. using a pre-cooled 70.1 rotor (Beckman, 342184). Pellets were resuspended in high salt buffer supplemented with 1% Triton X-100 and homogenized at 4° C. with a syringe. The homogenates were centrifuged again at 100,000×g (38,000 RPM, 70.1 rotor) for 60 minutes at 4° C. Pellets were resuspended in high salt buffer supplemented with 1% Triton X-100 and 1 M sucrose and homogenized at 4° C. with a syringe. The homogenates were centrifuged at 100,000×g (38,000 RPM, 70.1 rotor) for 60 minutes at 4° C. The resulting pellets containing insoluble fraction were resuspended in PBS (1:2 w/v relative to starting tissue weight), aliquoted and stored at −80° C. until use.
The reaction was performed in assay buffer (50 mM Tris pH 7.5 in 0.9% NaCl, 0.1% BSA) and incubated for two hours at room temperature (RT). Samples in duplicate were then filtered under vacuum in GF/C filter plates (PerkinElmer) to trap the aggregates with the bound radioligand and washed with 100 μL ice-cold 50 mM Tris pH 7.5. The GF/C filters were then dried and scintillation liquid (UltimateGold, PerkinElmer, 6013151) was added in each well. The filters were analyzed on a Microbeta2 scintillation counter (PerkinElmer). Values for the maximal signal were obtained in the absence of non-radiolabeled compound, while 100% displacement was obtained using 1 μM of non-radiolabeled reference compound. Ki values were calculated by nonlinear regression, using a one site—fit Ki model in Prism V7 (GraphPad).

[3] = cells printed in μM, read-out: Ki on AD brain homogenates

T2 sequence (P05067 672-713 limits assumed): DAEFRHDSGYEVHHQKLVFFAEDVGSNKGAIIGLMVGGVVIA
T1 sequence (Q13148 261-414 limits assumed): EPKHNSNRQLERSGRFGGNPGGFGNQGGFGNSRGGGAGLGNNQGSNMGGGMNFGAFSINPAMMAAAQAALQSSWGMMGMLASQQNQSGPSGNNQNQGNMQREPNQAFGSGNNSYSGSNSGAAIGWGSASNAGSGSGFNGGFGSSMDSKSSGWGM

SMILES | Ki [1] | Human brain derived TDP-43 aggregates Mean % competition at 250 nM [1] | Human brain derived TDP-43 aggregates Mean % competition at 2 μM [1] | Ki [2, 3] | Ki ([2]; read-out: Ki (nM) on AD brain homogenates)
O=C1c2sc(-c3ccc(N4CCCC4)nc3F)nc2CCN1c1ccncc1 [Compound 14] |  | 48% | 34% |  | 
O=C1c2sc(-c3ccc(N4CCC[C@@H](F)C4)nc3F)nc2CCN1c1cnsc1 [Compound 24, (R)-2-(2-fluoro-6-(3-fluoropiperidin-1-yl)pyridin-3-yl)-5-(isothiazol-4-yl)-6,7-dihydrothiazolo[5,4-c]pyridin-4(5H)-one] | 65 nM | 61% | 83% | > 1 µM | 
N#Cc1c(N)cccc1N1CCc2nc(-c3ccc(N4CC[C@@H](F)C4)nc3F)sc2C1=O [Compound 34] | 5 nM | 60% | 77% | > 1 µM | 
N#Cc1c(N)cccc1N1CCc2nc(-c3ccc(N4CC[C@H](F)C4)nc3F)sc2C1=O [Compound 32] | 4 nM | 65% | 80% | > 1 µM | 
N#Cc1c(N)cccc1N1CCc2nc(-c3ccc(N4CCC[C@@H](F)C4)nc3F)sc2C1=O [Compound 30] | 7 nM | 66% | 93% |  | 
O=C1c2sc(-c3ccc(N4CC[C@H](F)C4)nc3F)nc2CCN1c1ncccn1 [Compound 16] | 5 nM | 67% | 96% | > 1 µM | 
Nc1cc(N2CCc3nc(-c4ccc(N5CC[C@H](F)C5)nc4F)sc3C2=O)ccn1 [Compound 26] | 13 nM | 55% | 91% |  | 0.318 µM
Cn1cc(N2CCc3nc(-c4ccc(N5CC[C@@H](F)C5)nc4F)sc3C2=O)cn1 [Compound 11] |  | 73% | 102% |  | 
O=C1c2sc(-c3ccc(N4CCCC4)nc3F)nc2CCN1c1ccc(F)nc1 [Compound 12] |  | 56% | 59% |  | 

Further lines, results first:

Ki [1] | Human brain derived TDP-43 aggregates Mean % competition at 250 nM [1] | Human brain derived TDP-43 aggregates Mean % competition at 2 μM [1] | Ki [2, 3] | Ki ([2]; read-out: Ki (nM) on AD brain homogenates) | SMILES
54 nM | 68% | 100% |  |  | O=C1c2sc(-c3ccc(N4CC[C@@H](F)C4)nc3F)nc2CCN1c1cnsc1 [Compound 22]
43 nM | 45% | 86% | > 1 µM |  | Nc1cc(N2CCc3nc(-c4ccc(N5CCC[C@H](F)C5)nc4F)sc3C2=O)ccn1 [Compound 29]
11 nM | 62% | 86% | > 1 µM |  | O=C1c2sc(-c3ccc(N4CC[C@@H](F)C4)nc3F)nc2CCN1c1ncccn1 [Compound 15, 2-[2-fluoro-6-[(3R)-3-fluoropyrrolidin-1-yl]-3-pyridyl]-5-pyrimidin-2-yl-6,7-dihydrothiazolo[5,4-c]pyridine-4-one]
4 nM | 62% | 70% | > 1 µM |  | N#Cc1c(N)cccc1N1CCc2nc(-c3ccc(N4CCC[C@H](F)C4)nc3F)sc2C1=O [Compound 31]
7 nM | 66% | 75% |  |  | O=C1c2sc(-c3ccc(N4CC[C@H](F)C4)nc3F)nc2CCN1c1ccnnc1 [Compound 36]
25 nM | 80% | 70% | > 1 µM |  | O=C1c2sc(-c3ccc(N4CC[C@H](F)C4)nc3F)nc2CCN1c1ccncn1 [Compound 37]
31 nM | 62% | 75% | > 1 µM |  | O=C1c2sc(-c3ccc(N4CCCC4)nc3F)nc2CCN1c1cccnc1 [Compound 9, 2-(2-fluoro-6-(pyrrolidin-1-yl)pyridin-3-yl)-5-(pyridin-3-yl)-6,7-dihydrothiazolo[5,4-c]pyridin-4(5H)-one]
36 nM | 60% | 86% |  |  | O=C1c2sc(-c3ccc(N4CC[C@@H](F)C4)nc3F)nc2CCN1c1cscn1 [Compound 33]
51 nM | 51% | 73% | > 1 µM |  | O=C1c2sc(-c3ccc(N4CC[C@@H](F)C4)nc3F)nc2CCN1c1ccncc1 [Example 7]
48 nM | 78% | 96% | > 1 µM |  | O=C1c2sc(-c3ccc(N4CC[C@H](F)C4)nc3F)nc2CCN1c1cnsc1 [Compound 25, (S)-2-(2-fluoro-6-(3-fluoropyrrolidin-1-yl)pyridin-3-yl)-5-(isothiazol-4-yl)-6,7-dihydrothiazolo[5,4-c]pyridin-4(5H)-one]
 | 57% | 84% | > 1 µM |  | O=C1c2sc(-c3ccc(N4CC[C@@H](F)C4)nc3F)nc2CCN1c1cncnc1 [Compound 13]
30 nM | 46% | 85% |  |  | Cn1cc(N2CCc3nc(-c4ccc(N5CCCC5)nc4F)sc3C2=O)cn1 [Compound 21]
